Test results taken from patent publication US9029063B2, “Negative-working lithographic printing plate precursors” (Eastman Kodak Company, priority 2011, dated 2015).
Where two headings read alike, the source gives them in different places.

Experiment: Solubility in Dowanol PM (2-methoxy propanol)
Assay type: physicochemical
Settings: 20 °C, organic solvent or mixture
Description: The imagable layers comprise a radiation-sensitive imaging composition that includes one or more infrared radiation absorbing dyes. […] 2-Methoxy propanol (or propylene glycol methyl ether) is available from various commercial sources, and for example, can be obtained in Dowanol® PM. In some embodiments, the ion exchange products formed between the infrared radiation absorbing cyanine cation and any counter anion from any other components, for example, a free radical initiator, in the imagable layer.
Dowanol® PM is propylene glycol methyl ether that is available from Dow Chemical.

[1] = Dowanol PM (2-methoxy propanol), Table I, read-out: S1, Solubility of IR Dye in Dowanol PM
[2] = Dowanol PM (2-methoxy propanol), Table II, read-out: S1, solubility of IR Dye in Dowanol PM
[3] = Dowanol PM (2-methoxy propanol), Table IV, read-out: S1, solubility of IR Dye in Dowanol PM
[4] = tetraphenyl borate salt of the dye cation, Dowanol PM, Table II, read-out: S2, solubility of the tetraphenyl borate salt of the IR cation in Dowanol PM
[5] = tetraphenyl borate salt of the dye cation, Dowanol PM, Table IV, read-out: S2, solubility of the tetraphenyl borate salt of the IR cation in Dowanol PM
[6] = tetraphenylborate salt of the dye cation, Dowanol PM, Table I, read-out: S2, Solubility of the tetraphenylborate salt of the IR cation in Dowanol PM

Row | solubility [1] [mg/mL] | solubility [2] [mg/mL] | solubility [3] [mg/mL] | solubility [4] [mg/mL] | solubility [5] [mg/mL] | solubility [6] [mg/mL] | Structure (SMILES)
1 | 192 | 192 | 192 | 1.4 | 1.4 | 1.4 | CN1/C(=C/C=C2\CCCC(/C=C/C3=[N+](C)c4ccccc4C3(C)C)=C2Sc2nnnn2-c2ccccc2)C(C)(C)c2ccccc21 [compound 1]
2 | – | 128 | 128 | 4.8 | 4.8 | 4.8 | C=Cc1ccc(CSc2nnc(SC3=C(/C=C/C4=[N+](C)c5ccccc5C4(C)C)CCC/C3=C\C=C3\N(C)c4ccccc4C3(C)C)s2)cc1 [compound 2]
3 | 97 | – | – | – | – | 21 | CN1/C(=C/C=C2\CCCC(/C=C/C3=[N+](C)c4ccccc4C3(C)C)=C2Sc2ccc(C(C)(C)C)cc2)C(C)(C)c2ccccc21 [compound 4]
